Assay results reported in ChEMBL document CHEMBL1201862, “PubChem BioAssay data set” (2004).
Activity calls are given as the source filed them.

Legend:
HEK293 [1] = assay: cells; assay type: functional, cell-based; details: Homo sapiens
HEK293 [2] = assay: NOD2 signaling inhibitors in MDP-stimulated cells, cell-based, uHTS, luminescence (AID 2001); assay type: functional; details: Homo sapiens
[3] = molecular target: Nucleotide-binding oligomerization domain-containing protein 2 (Homo sapiens, UniProt Q9HC29); assay: inhibition of NOD2-driven NF-kB reporter – cell-based, luminescence, uHTS, HEK293 (AID 1566); assay type: functional
HEK293 [4] = assay: cells; assay type: functional, cell-based; details: Homo sapiens; remark: listed apart in the source
HEK293 [5] = assay: inhibition of NOD1-driven NF-kB reporter – cell-based, luminescence, uHTS, primary screen (AID 1578); assay type: functional; details: Homo sapiens
HEK293 [6] = assay: cells; assay type: functional, cell-based; details: Homo sapiens; remark: listed apart in the source
[7] = molecular target: Polyadenylate-binding protein 1 (Homo sapiens, UniProt P11940); assay: blockers of PABP interaction with poly(A) – biochemical, fluorescence polarization, […] (AID 2014)
[8] = molecular target: Eukaryotic translation initiation factor 4H (Homo sapiens, UniProt Q15056); assay: eIF4H binding inhibition – biochemical, uHTS, fluorescence polarization, translation initiation inhibitor project, primary screen (AID 2012)
[9] = molecular target: T1, Carboxy-terminal domain RNA polymerase II polypeptide A small phosphatase 1 (Homo sapiens, UniProt Q9GZU7); assay: CTDSP1 inhibitors, concentration-response, biochemical, absorbance readout, ultra-high-throughput screen actives (AID 540297); assay type: functional
T1 sequence (Q9GZU7 whole entry): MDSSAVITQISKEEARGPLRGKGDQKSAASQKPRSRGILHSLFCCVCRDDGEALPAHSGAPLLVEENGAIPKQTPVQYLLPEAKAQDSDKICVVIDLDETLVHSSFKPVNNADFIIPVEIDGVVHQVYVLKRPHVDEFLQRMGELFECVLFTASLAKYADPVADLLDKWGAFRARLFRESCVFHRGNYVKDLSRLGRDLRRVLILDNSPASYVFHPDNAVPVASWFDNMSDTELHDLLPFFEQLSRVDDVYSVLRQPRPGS

[10] = Trypanosoma cruzi growth suppression in host cells – NIH3T3 host cells, beta-gal luminescence, confirmation (AID 2044); assay type: functional, cell-based;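 further: intracellular parasites grown in NIH/3T3 mouse fibroblasts as host cells; luminescent beta-galactosidase reporter signal from transgenic T. cruzi replicating inside host cells; inhibitors lower the luminescence signal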
[11] = molecular target: T2, Short transient receptor potential channel 4 (Mus musculus, UniProt Q9QUQ5); assay: potentiation of DAMGO-evoked TRPC4 calcium signal – cell-based, HEK293 TRPC4/mu-opioid, Fluo-4 calcium, EC20 DAMGO, dose response (AID 434941); assay type: functional
T2 sequence (Q9QUQ5 whole entry): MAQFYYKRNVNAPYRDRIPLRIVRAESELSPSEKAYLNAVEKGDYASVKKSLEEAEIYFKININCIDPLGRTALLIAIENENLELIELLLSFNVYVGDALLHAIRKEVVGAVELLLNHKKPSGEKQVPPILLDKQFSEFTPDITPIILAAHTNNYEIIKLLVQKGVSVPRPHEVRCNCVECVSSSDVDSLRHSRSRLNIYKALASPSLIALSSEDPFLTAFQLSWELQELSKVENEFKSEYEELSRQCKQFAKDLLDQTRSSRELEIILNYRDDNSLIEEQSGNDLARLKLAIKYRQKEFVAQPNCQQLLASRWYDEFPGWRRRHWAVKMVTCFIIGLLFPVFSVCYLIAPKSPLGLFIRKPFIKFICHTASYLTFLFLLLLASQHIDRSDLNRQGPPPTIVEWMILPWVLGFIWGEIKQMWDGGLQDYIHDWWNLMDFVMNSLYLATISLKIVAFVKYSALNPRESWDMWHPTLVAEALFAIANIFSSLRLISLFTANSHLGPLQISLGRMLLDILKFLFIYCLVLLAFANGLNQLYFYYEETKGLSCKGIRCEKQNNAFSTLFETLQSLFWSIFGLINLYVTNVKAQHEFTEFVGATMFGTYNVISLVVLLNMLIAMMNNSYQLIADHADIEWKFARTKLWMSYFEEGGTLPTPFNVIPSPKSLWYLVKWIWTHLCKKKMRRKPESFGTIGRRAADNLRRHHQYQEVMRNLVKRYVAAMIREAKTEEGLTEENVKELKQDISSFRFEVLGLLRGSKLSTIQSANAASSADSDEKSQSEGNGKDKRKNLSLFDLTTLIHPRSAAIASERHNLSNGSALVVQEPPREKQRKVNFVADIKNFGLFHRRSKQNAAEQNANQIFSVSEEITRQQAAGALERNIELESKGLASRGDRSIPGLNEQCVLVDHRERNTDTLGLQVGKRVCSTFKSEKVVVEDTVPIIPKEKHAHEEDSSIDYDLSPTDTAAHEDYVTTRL

[12] = molecular target: T2, Short transient receptor potential channel 4; assay: calcium entry via TRPC4 opening agents – cell-based, HEK293 TRPC4/mu-opioid, Fluo-4 calcium, dose response (AID 434937); assay type: functional
[13] = NIH3T3 cell viability loss – ATP luminescence, mouse fibroblasts, counter-screen, dose response (AID 2010); assay type: functional, cell-based;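 further: cells exposed to compound for about 90 hours before reading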
[14] = molecular target: T3, Eukaryotic translation initiation factor 2-alpha kinase 3 (Homo sapiens, UniProt Q9NZJ5); assay: Counterscreen assay for PERK inhibitors: Dose response cell-based high throughput screening assay to measure inhibition of PERK at 6 hours. [Related pubchem assays: 1522, 1416 ]; assay type: functional
T3 sequence (Q9NZJ5 whole entry): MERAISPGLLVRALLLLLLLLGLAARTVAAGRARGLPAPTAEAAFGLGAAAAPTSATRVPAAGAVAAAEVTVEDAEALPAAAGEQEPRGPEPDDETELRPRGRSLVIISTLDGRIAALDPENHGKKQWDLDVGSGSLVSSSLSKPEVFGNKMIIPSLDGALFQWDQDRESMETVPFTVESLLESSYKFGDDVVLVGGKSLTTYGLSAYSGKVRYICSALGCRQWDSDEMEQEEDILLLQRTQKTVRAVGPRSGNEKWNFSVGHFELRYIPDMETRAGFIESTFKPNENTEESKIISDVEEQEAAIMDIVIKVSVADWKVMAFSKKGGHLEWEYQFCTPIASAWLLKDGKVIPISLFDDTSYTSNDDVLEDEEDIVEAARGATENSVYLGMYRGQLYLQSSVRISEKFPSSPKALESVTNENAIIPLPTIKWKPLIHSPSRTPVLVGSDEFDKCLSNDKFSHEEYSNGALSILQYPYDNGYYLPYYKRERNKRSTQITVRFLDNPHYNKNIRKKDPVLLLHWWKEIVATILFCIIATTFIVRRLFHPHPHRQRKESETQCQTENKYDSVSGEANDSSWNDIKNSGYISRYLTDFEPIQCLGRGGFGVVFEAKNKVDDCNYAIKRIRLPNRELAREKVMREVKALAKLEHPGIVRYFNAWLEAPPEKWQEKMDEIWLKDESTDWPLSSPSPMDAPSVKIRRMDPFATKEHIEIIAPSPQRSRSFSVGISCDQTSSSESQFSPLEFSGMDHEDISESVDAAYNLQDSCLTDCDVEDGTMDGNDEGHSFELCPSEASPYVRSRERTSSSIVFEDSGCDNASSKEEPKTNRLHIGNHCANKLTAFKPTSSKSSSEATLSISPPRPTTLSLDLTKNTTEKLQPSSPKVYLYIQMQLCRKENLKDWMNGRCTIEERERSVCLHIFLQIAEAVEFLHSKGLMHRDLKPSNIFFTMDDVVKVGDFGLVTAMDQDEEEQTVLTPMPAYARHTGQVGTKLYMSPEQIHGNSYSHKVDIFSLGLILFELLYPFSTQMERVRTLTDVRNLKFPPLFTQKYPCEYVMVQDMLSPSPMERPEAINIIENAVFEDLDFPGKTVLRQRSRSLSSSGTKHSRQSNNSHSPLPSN

[15] = molecular target: T3, Eukaryotic translation initiation factor 2-alpha kinase 3; assay: Dose response cell-based high-throughput screening assay to measure PERK inhibition. [Related pubchem assays: 1416 ]; assay type: functional
Beta-galactosidase = Beta-galactosidase (Escherichia coli, UniProt Q8VNN2); assay: detection-enzyme interference by beta-gal modulators – biochemical, E. coli enzyme, set 3, artefact control for CCR6 antagonist project, dose response (AID 504712); assay type: functional
Streptococcus = assay: GAS UMAA2166 growth inhibition – luminescence, BacTiterGlo, counter-screen for streptokinase expression inhibitor project, dose response (AID 1915); assay type: functional, organism-based;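 further: potency for reduction of bacterial viability or growth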
[16] = A cytotoxicity screen of small molecule inhibitors of the PhoP region in Salmonella typhi identified in the primary screen. [Related pubchem assays: 1850, 1864, 1985 ]; assay type: functional
[17] = test system: Streptococcus sp. 'group A'; assay: Streptococcus pyogenes SK(-)GAS viability under kanamycin – luminescence, BacTiterGlo, confirmation, counter-screen for streptokinase expression inhibitor project, dose response (AID 1900); assay type: functional, organism-based
Trypsin = Trypsin (Sus scrofa, UniProt P00761); assay: trypsin protease activity blockade – biochemical, quenched peptide fluorescence, cherry-pick, selectivity assay for Rce1 protease inhibitor project, dose response (AID 488789)
[18] = molecular target: Eukaryotic translation initiation factor 4E (Mus musculus, UniProt P63073); assay: blockers of eIF4G binding by eIF4E – biochemical, TR-FRET, dose response (AID 855); assay type: functional;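 further: potency for disrupting eIF4E binding to eIF4GI seen as loss of FRET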
Hexokinase = Hexokinase (Trypanosoma brucei, UniProt Q38C41); assay: Confirmation assay for inhibitors of Trypanosoma brucei hexokinase 1-Analogue-first series. [Related pubchem assays (depositor defined):AID1430, AID1632, AID2516, AID2560, AID2579, AID2600, AID449725, AID492951]; assay type: functional
[19] = molecular target: DNA dC->dU-editing enzyme APOBEC-3A (Homo sapiens, UniProt P31941); assay: A3A deaminase inhibition for selectivity – biochemical, dose response (AID 504722); assay type: functional
[20] = M. tuberculosis growth inhibition, HTS (AID 449762); assay type: functional
[21] = molecular target: DNA dC->dU-editing enzyme APOBEC-3G (Homo sapiens, UniProt Q9HC16); assay: Dose Response confirmation of small molecule APOBEC3G DNA Deaminase Inhibitors via a fluorescence-based single-stranded DNA deaminase assay. [Related pubchem assays (depositor defined):AID493012, AID493028]; assay type: functional
[22] = molecular target: T4, Rac GTPase-activating protein 1 (Homo sapiens, UniProt Q9H0H5); assay: blockers of MgcRacGAP-driven Rac1 GTP hydrolysis – biochemical, ADP Hunter fluorescence, primary and confirmatory, confirmation (AID 624330); assay type: functional
T4 sequence (Q9H0H5 whole entry): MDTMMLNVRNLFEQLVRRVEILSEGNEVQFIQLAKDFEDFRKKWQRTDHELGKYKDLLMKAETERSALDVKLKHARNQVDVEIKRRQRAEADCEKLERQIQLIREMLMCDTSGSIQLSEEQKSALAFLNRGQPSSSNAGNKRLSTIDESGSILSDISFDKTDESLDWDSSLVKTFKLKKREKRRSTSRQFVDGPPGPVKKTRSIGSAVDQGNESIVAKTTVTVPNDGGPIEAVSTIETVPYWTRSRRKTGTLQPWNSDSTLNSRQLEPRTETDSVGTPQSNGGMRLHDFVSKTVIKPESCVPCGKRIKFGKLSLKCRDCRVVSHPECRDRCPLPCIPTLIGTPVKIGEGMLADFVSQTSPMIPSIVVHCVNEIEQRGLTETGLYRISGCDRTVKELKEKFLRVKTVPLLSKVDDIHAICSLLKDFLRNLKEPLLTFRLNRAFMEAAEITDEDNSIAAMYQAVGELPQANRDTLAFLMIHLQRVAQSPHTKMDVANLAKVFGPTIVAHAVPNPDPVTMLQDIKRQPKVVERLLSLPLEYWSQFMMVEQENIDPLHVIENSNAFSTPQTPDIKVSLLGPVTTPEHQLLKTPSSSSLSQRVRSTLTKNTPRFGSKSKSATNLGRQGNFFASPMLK

Chain of Beta-galactosidase (Q8VNN2 whole entry): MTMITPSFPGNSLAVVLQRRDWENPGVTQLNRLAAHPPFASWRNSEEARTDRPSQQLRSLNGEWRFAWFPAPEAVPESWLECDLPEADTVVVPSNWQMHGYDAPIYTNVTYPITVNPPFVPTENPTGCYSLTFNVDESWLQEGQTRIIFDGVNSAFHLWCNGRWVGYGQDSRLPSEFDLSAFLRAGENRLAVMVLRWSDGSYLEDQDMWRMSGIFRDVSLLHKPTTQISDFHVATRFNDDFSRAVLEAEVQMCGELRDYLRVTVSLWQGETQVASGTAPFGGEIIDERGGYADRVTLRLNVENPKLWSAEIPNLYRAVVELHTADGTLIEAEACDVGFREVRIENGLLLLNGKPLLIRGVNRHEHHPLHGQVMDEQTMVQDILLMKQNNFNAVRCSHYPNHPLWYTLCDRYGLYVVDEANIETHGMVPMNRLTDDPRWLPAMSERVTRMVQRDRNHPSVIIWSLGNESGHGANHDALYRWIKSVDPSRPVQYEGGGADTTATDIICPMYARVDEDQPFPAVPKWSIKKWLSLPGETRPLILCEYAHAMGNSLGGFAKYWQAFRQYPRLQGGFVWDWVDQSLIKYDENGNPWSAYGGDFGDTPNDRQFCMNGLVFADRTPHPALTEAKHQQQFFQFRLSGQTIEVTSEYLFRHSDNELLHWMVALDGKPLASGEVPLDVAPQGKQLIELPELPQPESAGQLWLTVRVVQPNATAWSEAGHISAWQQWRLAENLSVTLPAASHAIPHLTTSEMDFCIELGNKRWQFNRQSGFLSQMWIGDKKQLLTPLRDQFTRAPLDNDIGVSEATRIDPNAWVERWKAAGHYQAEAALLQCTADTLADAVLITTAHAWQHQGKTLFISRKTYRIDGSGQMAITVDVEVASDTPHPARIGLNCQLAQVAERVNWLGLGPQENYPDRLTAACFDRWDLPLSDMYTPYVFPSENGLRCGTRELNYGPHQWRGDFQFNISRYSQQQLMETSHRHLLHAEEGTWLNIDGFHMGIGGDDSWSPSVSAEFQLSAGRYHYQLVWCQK
Chain of DNA dC->dU-editing enzyme APOBEC-3G (Q9HC16 whole entry): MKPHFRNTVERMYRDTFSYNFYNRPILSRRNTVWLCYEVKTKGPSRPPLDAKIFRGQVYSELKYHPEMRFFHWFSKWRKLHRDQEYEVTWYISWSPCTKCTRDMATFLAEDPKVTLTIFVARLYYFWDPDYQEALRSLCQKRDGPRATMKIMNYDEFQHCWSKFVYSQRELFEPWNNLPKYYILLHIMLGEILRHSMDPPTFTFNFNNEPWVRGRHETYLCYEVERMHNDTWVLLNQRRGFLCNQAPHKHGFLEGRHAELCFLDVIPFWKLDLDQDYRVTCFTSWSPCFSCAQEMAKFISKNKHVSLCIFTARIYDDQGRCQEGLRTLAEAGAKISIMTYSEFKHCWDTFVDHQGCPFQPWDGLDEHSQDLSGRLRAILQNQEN
Chain of Eukaryotic translation initiation factor 4E (P63073 whole entry): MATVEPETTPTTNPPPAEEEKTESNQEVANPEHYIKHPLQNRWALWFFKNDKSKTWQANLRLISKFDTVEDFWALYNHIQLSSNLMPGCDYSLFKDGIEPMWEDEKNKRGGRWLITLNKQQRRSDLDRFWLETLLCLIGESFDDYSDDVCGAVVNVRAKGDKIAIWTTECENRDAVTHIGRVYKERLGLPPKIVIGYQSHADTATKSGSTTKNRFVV
Chain of Nucleotide-binding oligomerization domain-containing protein 2 (Q9HC29 whole entry, the tested form may be a part): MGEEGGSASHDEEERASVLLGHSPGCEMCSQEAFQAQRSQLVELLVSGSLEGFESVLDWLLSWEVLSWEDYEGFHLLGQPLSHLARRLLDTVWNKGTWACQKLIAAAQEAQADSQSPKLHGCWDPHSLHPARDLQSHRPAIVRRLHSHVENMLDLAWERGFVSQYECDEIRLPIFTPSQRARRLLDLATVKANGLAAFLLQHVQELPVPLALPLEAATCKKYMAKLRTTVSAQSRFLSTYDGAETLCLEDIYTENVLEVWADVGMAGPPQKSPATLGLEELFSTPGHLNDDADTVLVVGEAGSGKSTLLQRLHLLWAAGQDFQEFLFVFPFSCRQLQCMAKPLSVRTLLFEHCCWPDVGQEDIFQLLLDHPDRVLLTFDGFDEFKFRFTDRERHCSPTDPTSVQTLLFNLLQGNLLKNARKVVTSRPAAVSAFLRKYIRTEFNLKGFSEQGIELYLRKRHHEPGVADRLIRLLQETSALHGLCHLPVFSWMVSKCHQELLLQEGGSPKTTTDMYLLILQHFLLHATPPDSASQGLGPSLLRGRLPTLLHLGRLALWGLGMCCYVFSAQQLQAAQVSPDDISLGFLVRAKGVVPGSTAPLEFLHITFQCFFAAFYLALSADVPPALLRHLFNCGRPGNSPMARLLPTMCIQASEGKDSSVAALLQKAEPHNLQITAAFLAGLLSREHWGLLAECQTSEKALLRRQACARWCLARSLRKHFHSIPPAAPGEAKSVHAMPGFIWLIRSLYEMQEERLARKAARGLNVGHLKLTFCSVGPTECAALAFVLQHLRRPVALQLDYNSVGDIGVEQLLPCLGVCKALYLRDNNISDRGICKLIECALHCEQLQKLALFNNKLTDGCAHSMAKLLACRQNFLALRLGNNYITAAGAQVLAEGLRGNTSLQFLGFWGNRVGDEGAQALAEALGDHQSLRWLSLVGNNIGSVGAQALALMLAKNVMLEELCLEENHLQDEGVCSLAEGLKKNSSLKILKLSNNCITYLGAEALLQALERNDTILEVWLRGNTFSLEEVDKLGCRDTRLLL
Chain of DNA dC->dU-editing enzyme APOBEC-3A (P31941 whole entry): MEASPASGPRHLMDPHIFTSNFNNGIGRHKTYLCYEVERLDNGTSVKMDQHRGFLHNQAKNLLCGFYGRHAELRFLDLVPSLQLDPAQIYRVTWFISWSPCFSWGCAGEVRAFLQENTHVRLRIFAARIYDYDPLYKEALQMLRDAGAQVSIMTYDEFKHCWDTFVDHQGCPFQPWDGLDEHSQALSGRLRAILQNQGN
Chain of Trypsin (P00761 whole entry): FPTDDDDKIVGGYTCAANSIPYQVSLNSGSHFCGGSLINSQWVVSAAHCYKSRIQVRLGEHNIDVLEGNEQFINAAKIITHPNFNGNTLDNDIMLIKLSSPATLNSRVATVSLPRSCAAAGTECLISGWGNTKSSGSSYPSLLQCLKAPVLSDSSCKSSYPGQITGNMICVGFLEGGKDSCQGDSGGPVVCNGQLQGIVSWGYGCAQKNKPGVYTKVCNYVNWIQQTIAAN
Chain of Polyadenylate-binding protein 1 (P11940 whole entry): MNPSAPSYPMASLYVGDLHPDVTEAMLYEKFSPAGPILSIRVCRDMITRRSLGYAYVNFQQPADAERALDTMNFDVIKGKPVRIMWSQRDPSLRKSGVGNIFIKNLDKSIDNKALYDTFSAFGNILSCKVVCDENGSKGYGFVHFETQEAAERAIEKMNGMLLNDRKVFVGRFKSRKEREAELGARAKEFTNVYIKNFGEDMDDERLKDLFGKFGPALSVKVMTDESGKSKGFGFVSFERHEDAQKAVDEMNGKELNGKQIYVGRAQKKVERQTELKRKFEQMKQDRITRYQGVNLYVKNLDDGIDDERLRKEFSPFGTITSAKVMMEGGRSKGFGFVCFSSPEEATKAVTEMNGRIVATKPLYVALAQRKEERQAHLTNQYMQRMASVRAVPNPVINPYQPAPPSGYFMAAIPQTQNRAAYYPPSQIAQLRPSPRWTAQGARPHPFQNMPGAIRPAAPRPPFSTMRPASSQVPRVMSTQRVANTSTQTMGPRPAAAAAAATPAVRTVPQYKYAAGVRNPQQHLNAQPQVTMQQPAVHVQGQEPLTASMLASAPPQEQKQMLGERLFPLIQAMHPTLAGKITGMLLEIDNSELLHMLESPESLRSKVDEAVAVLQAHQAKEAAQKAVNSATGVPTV
Chain of Hexokinase (Q38C41 whole entry): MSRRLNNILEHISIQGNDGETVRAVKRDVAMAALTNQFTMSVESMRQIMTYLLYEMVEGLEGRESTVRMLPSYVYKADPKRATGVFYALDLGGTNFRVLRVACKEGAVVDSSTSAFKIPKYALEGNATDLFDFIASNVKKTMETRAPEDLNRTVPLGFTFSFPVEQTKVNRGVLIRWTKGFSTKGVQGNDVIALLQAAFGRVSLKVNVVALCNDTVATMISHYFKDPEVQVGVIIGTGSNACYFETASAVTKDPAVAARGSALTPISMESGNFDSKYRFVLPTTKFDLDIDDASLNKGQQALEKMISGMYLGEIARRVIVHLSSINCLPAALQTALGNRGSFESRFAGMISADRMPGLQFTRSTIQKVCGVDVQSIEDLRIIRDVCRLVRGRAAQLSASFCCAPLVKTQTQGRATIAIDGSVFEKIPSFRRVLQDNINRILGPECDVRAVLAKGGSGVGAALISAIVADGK

## Cc1cc(OCC(=O)Nc2ccncc2)cc(C)c1Cl
HEK293 [1]
  IC50: > 20 µM (inactive)
HEK293 [2]
  IC50: 6.09 µM (active)
[3]
  EC50: 8.48 µM (active)
HEK293 [4]
  IC50: 12.3 µM (active)
HEK293 [5]
  EC50: 2.46 µM (active)
HEK293 [6]
  IC50: 4.41 µM (active)

## O=S(=O)([O-])CCC[n+]1ccc(Oc2ccccc2)cc1
[7]
  IC50: 4.32 µM (active)
[8]
  IC50: 48.3 µM (active)
[9]
  IC50: 12.9 µM (active)

## CC1Cc2ccccc2N1C(=O)CSc1nc2c(c(=O)n(C)c(=O)n2C)n1Cc1ccccc1 (stereo not given)
[10]
  EC50: 4.07 µM (active)
[11]
  EC50: 0.15 µM (active)
[12]
  EC50: 2.11 µM (active)
[13]
  EC50: > 60 µM (not active)

## Cc1ccc2c(c1C)NC(C)CC2C (stereo not given)
[14]
  EC50: > 55.7 µM (not active)
[15]
  EC50: > 55.7 µM (not active)

## CC(C)Cc1nnc(NC(=O)c2cc([N+](=O)[O-])ccc2N2CCOCC2)s1
Beta-galactosidase
  IC50: > 66.6 µM (inactive)

## CCN(CC(=O)NC(C)(C)C)C(=O)COc1c(Cl)cc(Cl)c2ccc(C)nc12
Beta-galactosidase
  IC50: > 66.6 µM (inactive)
Streptococcus
  EC50: 6.5 µM (active)
[16]
  EC50: > 50 µM (active)
[17]
  EC50: 1.45 µM (active)

## CCCc1nc2ccccc2c(=O)n1N
[14]
  EC50: > 55.7 µM (not active)
[15]
  EC50: > 55.7 µM (not active)

## COc1nc(-c2ccccc2)ccc1-c1noc(-c2ccccc2F)n1
Trypsin
  AC50: > 100 µM (inactive)

## CN(C)CCCOc1cccc(Cl)c1
[11]
  EC50: 0.03 µM (active)
[12]
  EC50: 0.06 µM (active)

## O=C(NC1CCCCCCC1)c1ccc2c(c1)OCO2
[18]
  IC50: > 64 µM (inactive)

## CCOc1ccc(-n2c(C)c(C(C)=O)c3cc(O)ccc32)cc1
HEK293 [1]
  IC50: > 20 µM (inactive)
HEK293 [2]
  IC50: 0.875 µM (active)
[3]
  EC50: > 20 µM (inactive)
HEK293 [4]
  IC50: > 20 µM (inactive)
HEK293 [5]
  EC50: > 20 µM (inactive)
HEK293 [6]
  IC50: 0.451 µM (active)

## CCOC(=O)Cn1sc2ccccc2c1=O
Hexokinase
  IC50: 12.5 µM (active)

## O=C1c2ccccc2C(=O)N1Cc1nc2ccccc2c(=O)n1-c1ccccn1
[18]
  IC50: > 64 µM (inactive)

## Cc1nn(-c2ccccc2)c(S)c1/C=N/CCC/N=C/c1c(C)nn(-c2ccccc2)c1S
[19]
  IC50: > 100 µM (inactive)
[20]
  IC50: > 100 µM (active)
[21]
  IC50: 5.47 µM (active)

## COc1cccc(/C=N/n2c(S)nnc2-c2[nH]nc3c2CCC3)c1O
[19]
  IC50: > 100 µM (inactive)
[22]
  IC50: 53.9 µM (active)
[21]
  IC50: 2.48 µM (active)
